Key:
Type in all cases: physicochemical
[1] = Storage at different relative humidities (composition / pKa constancy); conditions: for change of composition when stored at different relative humidities: pKa of the drug substance not affected
Text: Both ceftaroline fosamil acetic acid solvate monohydrate and ceftaroline fosamil propionic acid solvate monohydrate of EP1310502 A1 contain carbon acids in their crystal structure. […] Consequently in order to avoid batch-wise adjusting of the pH adjusting excipient, ceftaroline fosamil acetic acid solvate monohydrate and ceftaroline fosamil propionic acid solvate monohydrate of EP1310502 A1 need to be stored at low relative humidities in order to ensure a constant carbon acid amount and therefore a constant pKa value of the drug substance.

[2] = Residual solvent content; conditions: form obtained from slurry in aqueous ethanol
Text: The amounts of residual solvents of the novel forms H and D of ceftaroline fosamil of the present invention are well within the allowed ICH-limits. E.g. for the production of form H of ceftaroline fosamil of the present invention no organic solvent is used as this specific form is obtained from a slurry in water. Form D is obtained from a slurry of ceftaroline fosamil in aqueous ethanol. […] Therefore ceftaroline fosamil forms H and D are suitable forms for the preparation of a medicament.

[3] = Humidity and temperature controlled XRPD (sorptive/desorptive cycle, 0-90% RH); conditions: RH varied between 0 and 90%, 25° C.
Text: The positions of certain XRPD peaks of form H change when varying the RH between 0 and 90%. XRPD measurements in this range show anisotropic peak shifts to higher 2-theta angles on drying, which are reversible when increasing the relative humidity. These shifts are due to the shrinkage respectively the expansion of the unit cell caused by humidity dependent water contents in the sample. […] Table 1 lists some characteristic XRPD peaks from diffractograms recorded at increasing relative humidities during the sorptive cycle of the experiment.
For humidity and temperature controlled XRPD measurements samples were equilibrated in a VGI 2000M humidity chamber (SMS, Middlesex UK) with integrated peltier heat pump, circulating fluid pump and water reservoir to ensure uniform temperature distribution and stable sample humidities. RH controlled sorptive and desorptive measurements were recorded between 0%-90% RH+/−0.3% RH in 10% steps with an equilibrium time of 2 hours between consecutive measurements.

Row | fate of carbon acid in the crystal structure at increased relative humidities ([1]; increased relative humidities, decreased carbon acid amount affects pKa of drug substance) | ethanol amount (residual solvent) [2] | physical (solid form) stability on varying relative humidity, by XRPD [3] | SMILES | change of composition when stored at different relative humidities [1]
1 | partially replaced by water | – | – | CCO/N=C(\C(=O)N[C@@H]1C(=O)N2C(C(=O)[O-])=C(Sc3nc(-c4cc[n+](C)cc4)cs3)CS[C@H]12)c1nsc(NP(=O)(O)O)n1 [ceftaroline fosamil acetic acid solvate monohydrate, reference compound] | –
2 | – | below 0.5% | no peak shifts are observed | CCO/N=C(\C(=O)N[C@@H]1C(=O)N2C(C(=O)[O-])=C(Sc3nc(-c4cc[n+](C)cc4)cs3)CS[C@H]12)c1nsc(NP(=O)(O)O)n1 [form D, ceftaroline fosamil] | only show variations in their water content
3 | – | – | a phase transformation can be excluded | CCO/N=C(\C(=O)N[C@@H]1C(=O)N2C(C(=O)[O-])=C(Sc3nc(-c4cc[n+](C)cc4)cs3)CS[C@H]12)c1nsc(NP(=O)(O)O)n1 [form H, ceftaroline fosamil] | only show variations in their water content

Reference: patent publication US9534004B2, “Crystalline forms of ceftaroline fosamil” (Sandoz AG, priority 2012, dated 2017)
